The values that follow come from US5696140A, “N-cyano-N'-pyridylguanidines as serotonin antagonists” (Leo Pharmaceutical Products Ltd., priority 1992, dated 1997).

SMILES strings stand for the structures. pIC50: −log10 of the molar value.

In data set [1] the test system is human small cell lung carcinoma (NYH). Description: inhibition of tumour cell proliferation in vitro, NYH. The class given is cell-based.
Data set [2] has as its system human breast cancer (MCF-7). In words: inhibition of tumour cell proliferation in vitro, MCF-7. Type of data set: cell-based. To be noted: MCF7.
The test system of data set [3] is Yoshida sarcoma cells. In words: inhibition of Yoshida sarcoma cell proliferation in vitro ([^3 H]thymidine incorporation, 24 h). The following applies: Rattus norvegicus, read-out: Inhibition of tumour cell proliferation IC50. The class given is cell-based. Here is the method: (§1) The inhibition of tumour cell proliferation was studied using Yoshida sarcoma cells, originally derived from rat hepatic tumours induced by the carcinogen o-aminoazotoluene. The cells were cultured in vitro for 24 hours in the presence of the compound under investigation. DNA synthesis was measured by incorporation of [^3 H]thymidine, and the median inhibitory concentrations (IC50) of the compounds were calculated. The cytotoxicity of the compounds in normal lymphocytes was assessed by the dye exclusion method and expressed as the concentrations resulting in 50% viability (VC50).
On the technique in general: Uptake of a labelled nucleoside into DNA is a usual measure of proliferation.

Data set [4] in a line: cytotoxicity in normal lymphocytes, dye exclusion method. The class given is cell-based. To be noted: concentration resulting in 50% viability, read-out: Effect on viability of normal cells VC50. How it is done: as §1
Data set [5] has as its system Yoshida sarcoma cells. Description: survival time of Yoshida tumour-bearing rats (LEW/Mol inbred female rats, oral). Type of data set: in vivo, rat. To be noted: untreated 7.5 days. Here is the method:
The prolongation of survival time of tumour-bearing rats was studied in LEW/Mol inbred female rats inoculated with Yoshida sarcoma cells (identical to the cells described above) in a number of 2×10^7 cells. Tumour-bearing rats were dosed orally once daily from day 3 after the transfer of tumour cells and until death or until the body-weights had increased by 10% as a consequence of tumour proliferation. The time for death of 50% of the animals was calculated by linear regression analysis.

Data set [6] relates to human small cell lung carcinoma (NYH). Description: therapeutic antitumour effect in nude mice carrying a human small cell lung carcinoma (NYH). The class given is in vivo, human tumour in nude mice. Here is the method:
In addition the antitumour effect of the compounds of the present invention was determined in nude mice carrying a human small cell lung carcinoma (NYH).
Nude mice were inoculated subcutaneously with a 0.2 ml NYH cell suspension (5×10^7 cells/ml). Two weeks after inoculum animals were divided in treatment and control groups. All mice were dosed p.o. once daily according to group from day 14 to 28.

Turning to `COc1ccccc1OCCCCCCNC(=NC#N)Nc1ccncc1` [Example No. 53, N-Cyano-N'-(6-o-methoxyphenoxyhexyl)-N"-4-pyridylquanidine], the pIC50 in data set [1] is 9.28; in data set [2] it was 9.13.
As to `N#CN=C(NCCCOc1ccccc1)Nc1ccncc1` [Example No. 5, N-Cyano-N'-(3-phenoxypropyl)-N"-4-pyridylquanidine], the pIC50 in the data set on Yoshida sarcoma cells [3] is 5.48. For the same molecule, in data set [4], the CC50 was greater than 100 µM. The “Time to 50% of animals dead of cancer” value in the data set with Yoshida sarcoma cells [5] (10 mg/kg p.o. once daily) is given as 12.0 days; in the data set on Yoshida sarcoma cells [5] (20 mg/kg p.o. once daily), 15.5 days; with Yoshida sarcoma cells [5] (50 mg/kg p.o. once daily) it was “a (No rats had died on day 14. Calculation of 50% dead not possible.)”; in the data set with Yoshida sarcoma cells [5] (100 mg/kg p.o. once daily), “a (No rats had died on day 14. Calculation of 50% dead not possible.)”.
Turning to `N#CN=C(NCCCCCOc1ccccc1)Nc1ccncc1` [Example No. 18, N-Cyano-N'-(5-phenoxypentyl)-N"-4-pyridylquanidine], the pIC50 with Yoshida sarcoma cells [3] is 6.12. Moreover, the CC50 in data set [4] was greater than 100 µM. Moreover, the “Time to 50% of animals dead of cancer” value in the data set with Yoshida sarcoma cells [5] (20 mg/kg p.o. once daily) was determined as 11.0 days.
Turning to `Sc1ncnc2nc[nH]c12` [6-Mercaptopurine, reference compound], the “Time to 50% of animals dead of cancer” value in the data set on Yoshida sarcoma cells [5] (10 mg/kg p.o. once daily) is reported as 12.2 days.
Take `N#CNC(=Nc1ccncc1)NCCCCCCCOc1ccccc1` [Example No. 33, N-Cyano-N'-(7-phenoxyheptyl)-N"-4-pyridylguanidine]: the pIC50 in data set [1] is 9.24; in data set [2] it was 8.21.
With `N#CN=C(NCCCCCCOc1ccc(Cl)cc1)Nc1ccncc1` [Example No. 43, N-(6-p-Chlorophenoxyhexyl)-N'-cyano-N"-4-pyridylquanidine], the pIC50 is 8.72 in data set [1] and 7.68 in data set [2]. For the same molecule, the “tumour areas (range)” value in data set [6] (25 mg/kg p.o. once daily day 14 to 28, day 11 (before dosing)) was 12-36 mm^2; in data set [6] (25 mg/kg p.o. once daily day 14 to 28, day 14), 23-58 mm^2; in data set [6] (25 mg/kg p.o. once daily day 14 to 28, day 18, p < 0.05 vs untreated or vehicle), 12-59 mm^2; in data set [6] (25 mg/kg p.o. once daily day 14 to 28, day 21, p < 0.05 vs untreated or vehicle), 11-18 mm^2; in data set [6] (25 mg/kg p.o. once daily day 14 to 28, day 25, p < 0.05 vs untreated or vehicle), 4-14 mm^2; in data set [6] (25 mg/kg p.o. once daily day 14 to 28, day 28, p < 0.05 vs untreated or vehicle) it was 0--0 mm^2. Besides, the “tumour areas (range)” value in data set [6] (50 mg/kg p.o. once daily day 14 to 28, day 11 (before dosing)) is listed as 17-64 mm^2; in data set [6] (50 mg/kg p.o. once daily day 14 to 28, day 14) it was 16-131 mm^2; in data set [6] (50 mg/kg p.o. once daily day 14 to 28, day 18, p < 0.05 vs untreated or vehicle), 8-109 mm^2; in data set [6] (50 mg/kg p.o. once daily day 14 to 28, day 21, p < 0.05 vs untreated or vehicle), 6-40 mm^2; in data set [6] (50 mg/kg p.o. once daily day 14 to 28, day 25, p < 0.05 vs untreated or vehicle) it was 3-27 mm^2; in data set [6] (50 mg/kg p.o. once daily day 14 to 28, day 28, p < 0.05 vs untreated or vehicle), 0--0 mm^2. For the same molecule, the Number of tumours in data set [6] (25 mg/kg p.o., day 11 (before dosing)) is on record as 6; in data set [6] (25 mg/kg p.o., day 14) it was 8; in data set [6] (25 mg/kg p.o., day 18), 8; in data set [6] (25 mg/kg p.o., day 21), 5; in data set [6] (25 mg/kg p.o., day 25), 3; in data set [6] (25 mg/kg p.o., day 28) it was 0. Further, the Number of tumours in data set [6] (50 mg/kg p.o., day 11 (before dosing)) was determined as 6; in data set [6] (50 mg/kg p.o., day 14), 10; in data set [6] (50 mg/kg p.o., day 18), 10; in data set [6] (50 mg/kg p.o., day 21) it was 5; in data set [6] (50 mg/kg p.o., day 25), 5; in data set [6] (50 mg/kg p.o., day 28), 0.
Turning to `O=P1(N(CCCl)CCCl)NCCCO1` (stereo not drawn) [Cyclophosphamide, reference compound], the “Time to 50% of animals dead of cancer” value in the data set with Yoshida sarcoma cells [5] (0.3 mg/kg p.o. once daily) is listed as 19.1 days.
Consider `N#CN=C(NCCCCOc1ccccc1)Nc1ccncc1` [Example No. 14, N-Cyano-N'-(4-phenoxybutyl)-N"-4-pyridylquanidine], for which, in the data set with Yoshida sarcoma cells [3], the pIC50 is 6.77. Moreover, the CC50 in data set [4] was 100 µM. Besides, the “Time to 50% of animals dead of cancer” value with Yoshida sarcoma cells [5] (20 mg/kg p.o. once daily) was 10.8 days.
Turning to `N#CN=C(NCCCCCCOc1ccccc1Cl)Nc1ccncc1` [Example No. 54, N-(6-o-Chlorophenoxyhexyl)-N'-cyano-N"-4-pyridylquanidine], the results for the pIC50 in data set [1] and in data set [2] were 9.23 and 8.85, respectively.
Turning to `N#CNC(=NCCCCCCOc1cc(Cl)c(Cl)cc1Cl)Nc1ccncc1` [Example No. 52, N-Cyano-N'-4-pyridyl-N"-(6-(2,4,5-trichlorophenoxy)hexyl)guanidine], the values for the pIC50 in data set [1] and in data set [2] were 8.85 and 8.37, respectively.
